Key:
[1] = molecular target: T1, HiBiT-BRM fusion protein in stable HeLa cell line (Homo sapiens, UniProt P51531); assay: HiBiT-BRM cell-based degradation assay (Nano-Glo HiBiT Lytic Detection, 24 h); design: DC50: scale not given here; conditions: HeLa HiBiT-BRM cells; for DC50: read-out: BRM HiBit Degradation IC50; for BRM HiBit Degradation Maximum (%): top dose 30 μM
T1 construct: expressed in transfected cells
Method in brief: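 Stable HiBiT-BRM HeLa cells treated 24 h with 10-point 3-fold dilutions, top final dose 30 μM, in duplicate. Luminescence read after lytic LgBiT reagent. Percent degradation was normalised to DMSO (high control) and 2 μM reference BRM/BRG1 degrader (low control).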

[2] = molecular target: T2, HiBit-BRG1 fusion protein in stable HeLa cell line expressing HiBit-BRG1 and LgBit (Homo sapiens, UniProt P51532); assay: HiBiT-BRG1 cell-based degradation assay (Nano-Glo HiBiT, 24 h); conditions: HeLa HiBit-BRG1/LgBit cells; for Dmax: top dose 30 μM, read-out: BRG1 HiBit Degradation Maximum (%); for DC50: read-out: BRMG1 HiBit Degradation IC50
T2 construct: expressed in transfected cells
Method in brief: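 Stable HeLa line co-expressing HiBiT-BRG1 and LgBiT, compound-treated 24 h; luminescence read after Nano-Glo HiBiT lytic reagent. % degradation normalised between DMSO (high control) and 2 μM reference BRM/BRG1 degrader (low control).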

T1 sequence (P51531 whole entry, the tested form may be a part): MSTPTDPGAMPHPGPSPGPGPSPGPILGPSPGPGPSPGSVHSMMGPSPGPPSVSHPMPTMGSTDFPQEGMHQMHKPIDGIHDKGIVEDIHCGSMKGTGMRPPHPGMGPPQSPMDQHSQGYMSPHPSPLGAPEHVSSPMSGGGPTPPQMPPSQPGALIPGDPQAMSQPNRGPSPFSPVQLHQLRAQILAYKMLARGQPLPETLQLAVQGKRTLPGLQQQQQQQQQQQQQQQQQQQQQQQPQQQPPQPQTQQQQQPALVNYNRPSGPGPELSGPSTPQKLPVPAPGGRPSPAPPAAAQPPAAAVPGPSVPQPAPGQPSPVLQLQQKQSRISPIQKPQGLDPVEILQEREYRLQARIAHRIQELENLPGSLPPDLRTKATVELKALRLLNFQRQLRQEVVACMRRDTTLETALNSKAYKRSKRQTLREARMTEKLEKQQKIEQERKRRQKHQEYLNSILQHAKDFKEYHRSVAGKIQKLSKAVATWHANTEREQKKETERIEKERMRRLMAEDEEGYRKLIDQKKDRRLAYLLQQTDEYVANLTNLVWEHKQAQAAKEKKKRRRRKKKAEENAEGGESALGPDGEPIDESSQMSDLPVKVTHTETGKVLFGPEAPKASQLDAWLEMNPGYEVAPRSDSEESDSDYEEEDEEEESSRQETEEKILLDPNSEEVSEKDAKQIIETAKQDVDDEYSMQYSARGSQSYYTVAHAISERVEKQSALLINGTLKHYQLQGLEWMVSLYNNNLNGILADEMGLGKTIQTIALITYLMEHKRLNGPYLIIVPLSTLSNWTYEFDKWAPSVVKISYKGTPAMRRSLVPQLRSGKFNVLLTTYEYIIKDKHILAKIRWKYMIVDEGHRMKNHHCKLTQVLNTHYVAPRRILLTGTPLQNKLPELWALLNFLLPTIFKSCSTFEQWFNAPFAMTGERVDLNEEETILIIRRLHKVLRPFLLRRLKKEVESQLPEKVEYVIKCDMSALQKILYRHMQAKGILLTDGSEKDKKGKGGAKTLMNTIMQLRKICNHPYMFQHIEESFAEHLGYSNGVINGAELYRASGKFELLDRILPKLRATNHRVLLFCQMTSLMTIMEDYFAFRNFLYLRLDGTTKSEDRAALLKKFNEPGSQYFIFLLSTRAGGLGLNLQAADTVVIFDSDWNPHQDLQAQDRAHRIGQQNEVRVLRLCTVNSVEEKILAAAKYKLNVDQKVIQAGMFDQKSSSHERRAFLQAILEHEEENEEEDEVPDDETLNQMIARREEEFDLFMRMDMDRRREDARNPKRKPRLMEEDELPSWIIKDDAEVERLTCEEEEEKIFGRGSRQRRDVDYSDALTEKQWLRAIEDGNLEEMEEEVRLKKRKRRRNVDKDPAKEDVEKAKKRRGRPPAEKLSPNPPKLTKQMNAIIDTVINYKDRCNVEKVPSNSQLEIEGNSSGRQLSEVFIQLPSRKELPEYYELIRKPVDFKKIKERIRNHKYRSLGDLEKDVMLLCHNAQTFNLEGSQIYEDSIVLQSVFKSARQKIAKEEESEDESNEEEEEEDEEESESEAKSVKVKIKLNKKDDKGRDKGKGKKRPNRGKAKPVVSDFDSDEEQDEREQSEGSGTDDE
T2 sequence (P51532 whole entry, the tested form may be a part): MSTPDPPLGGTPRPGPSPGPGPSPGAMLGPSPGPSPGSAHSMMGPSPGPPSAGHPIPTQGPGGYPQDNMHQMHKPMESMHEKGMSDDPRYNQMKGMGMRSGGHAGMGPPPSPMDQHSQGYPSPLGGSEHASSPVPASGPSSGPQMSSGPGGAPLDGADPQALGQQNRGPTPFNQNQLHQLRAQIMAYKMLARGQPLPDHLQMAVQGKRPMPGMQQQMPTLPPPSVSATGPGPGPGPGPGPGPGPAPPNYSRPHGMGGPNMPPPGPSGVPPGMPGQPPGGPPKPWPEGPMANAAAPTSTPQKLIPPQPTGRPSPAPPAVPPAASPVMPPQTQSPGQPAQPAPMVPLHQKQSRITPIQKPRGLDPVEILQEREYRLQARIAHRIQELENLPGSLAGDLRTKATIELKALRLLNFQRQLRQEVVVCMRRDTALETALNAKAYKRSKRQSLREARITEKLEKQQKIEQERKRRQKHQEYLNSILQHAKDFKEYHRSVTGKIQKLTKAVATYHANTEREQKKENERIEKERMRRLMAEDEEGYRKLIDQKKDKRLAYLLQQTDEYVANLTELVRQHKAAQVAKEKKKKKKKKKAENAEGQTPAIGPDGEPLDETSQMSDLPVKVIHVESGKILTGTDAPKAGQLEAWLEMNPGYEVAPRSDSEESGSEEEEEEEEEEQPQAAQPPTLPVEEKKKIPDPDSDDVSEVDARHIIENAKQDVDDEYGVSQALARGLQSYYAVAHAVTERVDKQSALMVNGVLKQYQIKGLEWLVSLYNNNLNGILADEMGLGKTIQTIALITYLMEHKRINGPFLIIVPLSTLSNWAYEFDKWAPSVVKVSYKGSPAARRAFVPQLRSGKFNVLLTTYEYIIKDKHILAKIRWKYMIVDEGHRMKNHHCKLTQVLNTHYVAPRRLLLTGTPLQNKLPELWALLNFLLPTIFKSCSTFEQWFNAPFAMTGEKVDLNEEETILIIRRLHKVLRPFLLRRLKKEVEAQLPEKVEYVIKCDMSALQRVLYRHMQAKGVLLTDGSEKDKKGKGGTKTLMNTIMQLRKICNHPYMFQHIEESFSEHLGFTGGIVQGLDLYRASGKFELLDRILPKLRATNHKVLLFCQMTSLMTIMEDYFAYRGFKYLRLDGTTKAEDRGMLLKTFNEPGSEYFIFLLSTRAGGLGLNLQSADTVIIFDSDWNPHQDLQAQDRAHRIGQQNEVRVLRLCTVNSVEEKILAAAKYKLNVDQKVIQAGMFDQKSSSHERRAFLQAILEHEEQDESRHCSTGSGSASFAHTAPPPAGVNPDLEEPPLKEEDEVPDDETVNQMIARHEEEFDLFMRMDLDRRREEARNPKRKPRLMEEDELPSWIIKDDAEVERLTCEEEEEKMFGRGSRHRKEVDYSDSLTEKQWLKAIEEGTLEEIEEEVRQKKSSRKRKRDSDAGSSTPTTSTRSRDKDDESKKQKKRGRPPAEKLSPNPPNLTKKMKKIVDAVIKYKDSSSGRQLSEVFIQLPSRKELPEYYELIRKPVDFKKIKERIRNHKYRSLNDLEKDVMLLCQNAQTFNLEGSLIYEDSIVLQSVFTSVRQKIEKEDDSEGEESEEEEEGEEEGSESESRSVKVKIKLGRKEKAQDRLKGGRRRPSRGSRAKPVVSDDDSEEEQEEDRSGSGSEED

SMILES | DC50 [1] | Dmax [2] | DC50 [2] | BRM HiBit Degradation Maximum (%) [1]
CC(C)[C@@H](C(=O)N1C[C@H](O)C[C@H]1C(=O)N[C@@H](C)c1ccc(F)cc1)c1cc(N2CC3(C2)CN(c2cc4nnc(-c5ccccc5O)cc4cc2C(F)F)C3)no1 [Compound 236, (2S,4R)-1-((R)-2-(3-(6-(6-(difluoromethyl)-3-(2-hydroxyphenyl)cinnolin-7-yl)-2,6-diazaspiro[3.3]heptan-2-yl)isoxazol-5-yl)-3-methylbutanoyl)-N-((S)-1-(4-fluorophenyl)ethyl)-4-hydroxypyrrolidine-2-carboxamide] | > 0.01 µM | < 50% | – | A (“A” indicates maximum degradation ≥75%)
CCOc1cc2cc(-c3ccccc3O)nnc2cc1N1CC2(CN(c3cc([C@H](C(=O)N4C[C@H](O)C[C@H]4C(=O)N[C@@H](C)c4ccc(-c5scnc5C)cc4)C(C)C)on3)C2)C1 [Compound 237, (2S,4R)-1-((R)-2-(3-(6-(6-ethoxy-3-(2-hydroxyphenyl)cinnolin-7-yl)-2,6-diazaspiro[3.3]heptan-2-yl)isoxazol-5-yl)-3-methylbutanoyl)-4-hydroxy-N-((S)-1-(4-(4-methylthiazol-5-yl)phenyl)ethyl)pyrrolidine-2-carboxamide] | < 0.01 µM | > 75% | < 0.01 µM | A (“A” indicates maximum degradation ≥75%)
C#Cc1ccc(CNC(=O)[C@@H]2C[C@@H](O)CN2C(=O)[C@H](C(C)C)n2cc(N3CC4(CN(c5ccc6cc(-c7ccccc7O)nnc6c5)C4)C3)nn2)c(OC)c1 [Compound 238, (2S,4R)-N-(4-ethynyl-2-methoxybenzyl)-4-hydroxy-1-((S)-2-(4-(6-(3-(2-hydroxyphenyl)cinnolin-7-yl)-2,6-diazaspiro[3.3]heptan-2-yl)-1H-1,2,3-triazol-1-yl)-3-methylbutanoyl)pyrrolidine-2-carboxamide] | < 0.01 µM | < 50% | – | A (“A” indicates maximum degradation ≥75%)
C#Cc1cc2cc(-c3ccccc3O)nnc2cc1N1CC2(CN(c3cc([C@H](C(=O)N4C[C@H](O)C[C@H]4C(=O)N[C@@H](C)c4ccc(-c5scnc5C)cc4)C(C)C)on3)C2)C1 [Compound 239, (2S,4R)-1-((R)-2-(3-(6-(6-ethynyl-3-(2-hydroxyphenyl)cinnolin-7-yl)-2,6-diazaspiro[3.3]heptan-2-yl)isoxazol-5-yl)-3-methylbutanoyl)-4-hydroxy-N-((S)-1-(4-(4-methylthiazol-5-yl)phenyl)ethyl)pyrrolidine-2-carboxamide] | < 0.01 µM | > 50% | > 0.01 µM | A (“A” indicates maximum degradation ≥75%)
C#Cc1cc(N2CC3(C2)CN(c2cc([C@H](C(=O)N4C[C@H](O)C[C@H]4C(=O)N[C@@H](C)c4ccc(-c5scnc5C)cc4)C(C)C)on2)C3)cc2nnc(-c3ccccc3O)cc12 [Compound 240, (2S,4R)-1-((R)-2-(3-(6-(5-ethynyl-3-(2-hydroxyphenyl)cinnolin-7-yl)-2,6-diazaspiro[3.3]heptan-2-yl)isoxazol-5-yl)-3-methylbutanoyl)-4-hydroxy-N-((S)-1-(4-(4-methylthiazol-5-yl)phenyl)ethyl)pyrrolidine-2-carboxamide] | < 0.01 µM | < 50% | – | A (“A” indicates maximum degradation ≥75%)

Second part, led by results:

DC50 [1] | Dmax [2] | DC50 [2] | SMILES | BRM HiBit Degradation Maximum (%) [1]
< 0.01 µM | > 75% | < 0.01 µM | C#Cc1cc2nnc(-c3ccccc3O)cc2cc1N1CC2(CN(c3cc([C@H](C(=O)N4C[C@H](O)C[C@H]4C(=O)N[C@@H](C)c4ccc(-c5scnc5C)cc4)C(C)C)on3)C2)C1 [Compound 241, (2S,4R)-1-((R)-2-(3-(6-(7-ethynyl-3-(2-hydroxyphenyl)cinnolin-6-yl)-2,6-diazaspiro[3.3]heptan-2-yl)isoxazol-5-yl)-3-methylbutanoyl)-4-hydroxy-N-((S)-1-(4-(4-methylthiazol-5-yl)phenyl)ethyl)pyrrolidine-2-carboxamide] | A (“A” indicates maximum degradation ≥75%)
< 0.01 µM | > 50% | < 0.01 µM | C#Cc1ccc(CNC(=O)[C@@H]2C[C@@H](O)CN2C(=O)[C@H](C(C)C)n2cc(N3CC4(CN(c5ccc6cc(-c7ccccc7O)nnc6c5)C4)C3)nn2)c(OCCCOC)c1 [Compound 242, (2S,4R)-N-(4-ethynyl-2-(3-methoxypropoxy)benzyl)-4-hydroxy-1-((S)-2-(4-(6-(3-(2-hydroxyphenyl)cinnolin-7-yl)-2,6-diazaspiro[3.3]heptan-2-yl)-1H-1,2,3-triazol-1-yl)-3-methylbutanoyl)pyrrolidine-2-carboxamide] | A (“A” indicates maximum degradation ≥75%)
< 0.01 µM | > 75% | < 0.01 µM | Cc1ncsc1-c1ccc([C@H](C)NC(=O)[C@@H]2C[C@@H](O)CN2C(=O)[C@@H](c2cc(-c3cnc(N4CC5(CN(c6ccc7nnc(-c8ccccc8O)cc7c6)C5)C4)nc3)no2)C(C)C)cc1 [Compound 243, (2S,4R)-4-hydroxy-1-((R)-2-(3-(2-(6-(3-(2-hydroxyphenyl)cinnolin-6-yl)-2,6-diazaspiro[3.3]heptan-2-yl)pyrimidin-5-yl)isoxazol-5-yl)-3-methylbutanoyl)-N-((S)-1-(4-(4-methylthiazol-5-yl)phenyl)ethyl)pyrrolidine-2-carboxamide] | A (“A” indicates maximum degradation ≥75%)
> 0.1 µM | < 50% | – | Cc1ncsc1-c1ccc([C@H](C)NC(=O)[C@@H]2C[C@@H](O)CN2C(=O)[C@@H](c2cc(N3CCC(N4CC5(CN(Cc6ccc7cc(-c8ccccc8O)nnc7c6)C5)C4)CC3)no2)C(C)C)cc1 [Compound 244, (2S,4R)-4-hydroxy-1-((R)-2-(3-(4-(6-((3-(2-hydroxyphenyl)cinnolin-7-yl)methyl)-2,6-diazaspiro[3.3]heptan-2-yl)piperidin-1-yl)isoxazol-5-yl)-3-methylbutanoyl)-N-((S)-1-(4-(4-methylthiazol-5-yl)phenyl)ethyl)pyrrolidine-2-carboxamide] | B (“B” indicates maximum degradation ≥50%)
> 0.01 µM | < 50% | – | Cc1ncsc1-c1ccc([C@H](C)NC(=O)[C@@H]2C[C@@H](O)CN2C(=O)[C@@H](c2cc(N3CC4(CN(Cc5ccc6nnc(-c7ccccc7O)cc6c5)C4)C3)no2)C(C)C)cc1 [Compound 245, (2S,4R)-4-hydroxy-1-((R)-2-(3-(6-((3-(2-hydroxyphenyl)cinnolin-6-yl)methyl)-2,6-diazaspiro[3.3]heptan-2-yl)isoxazol-5-yl)-3-methylbutanoyl)-N-((S)-1-(4-(4-methylthiazol-5-yl)phenyl)ethyl)pyrrolidine-2-carboxamide] | B (“B” indicates maximum degradation ≥50%)
< 0.01 µM | < 50% | – | Cc1ncsc1-c1ccc([C@H](C)NC(=O)[C@@H]2C[C@@H](O)CN2C(=O)[C@@H](c2cc(N3CC4(CN(c5ccc6cc(-c7cccc(F)c7O)nnc6c5)C4)C3)no2)C(C)C)cc1 [Compound 246, (2S,4R)-1-((R)-2-(3-(6-(3-(3-fluoro-2-hydroxyphenyl)cinnolin-7-yl)-2,6-diazaspiro[3.3]heptan-2-yl)isoxazol-5-yl)-3-methylbutanoyl)-4-hydroxy-N-((S)-1-(4-(4-methylthiazol-5-yl)phenyl)ethyl)pyrrolidine-2-carboxamide] | A (“A” indicates maximum degradation ≥75%)

Reference: patent publication US20260193264A1, “BENZOYPARAZINE PYRAZINES AND THEIR USES” (FOGHORN THERAPEUTICS INC., priority 2022, published 2026)
